Source: patent EP4707277A1, “NOVEL HETEROCYCLIC AMINE DERIVATIVES AND PHARMACEUTICAL COMPOSITION COMPRISING SAME” (Daewoong Pharmaceutical Co., Ltd., priority 2023, dated 2024)
Where two headings read alike, the source gives them in different places.

How the values were obtained:
[1] = target: T1, BTK (Homo sapiens, UniProt Q06187); assay: Inhibitory activity against BTK, ADP-Glo Kinase system (Promega); type: biochemical
T1 construct: purchased Signalchem B10-10H
Method: (§1) Inhibitory activities against BTK and ITK were measured for the compounds prepared in the above Examples as follows.
(§2) The inhibitory activities against BTK and ITK were evaluated using 'ADP-Glo™ Kinase system' (Promega Corporation). In the case of this evaluation method, activation was measured by quantifying the amount of ADP produced during the kinase reaction, which was utilized to measure the inhibitory activities against BTK and ITK.
(§3) Specifically, the inhibitory activities against BTK and ITK were measured using BTK kinase (Signalchem, B10-10H), ITK kinase (Signalchem, I13-11G-10), and ADP-Glo kinase assay kit (Promega, V9102). Recombinant purified human BTK and ITK were diluted with 1 x kinase reaction buffer (40 mM Tris-Cl, pH 7.5, 20 mM MgCl2, 0.1 mg/mL BSA, 2 mM MnCl2 and 50 uM DTT) and added to a 96 well plate (ITK: final concentration of 4 ng per reaction/BTK: final concentration of 10 ng per reaction). The compounds prepared in the previous Examples were treated so as to be finally a 1% DMSO aqueous solution, and a substrate cocktail containing ATP (1mM or Km ATP (BTK: 10 uM /ITK: 25uM)) and 0.2 ug/ul of Poly (Glu4,Tyr1) peptide (BTK and ITK final concentration) in the total 25 uL reactants was added to a 96-well plate to initiate enzymatic reaction. After incubation (30°C) for 1 hour, equivalent volume (25 uL per reaction) of ADP Glo was added, and incubated (30°C) for 40 minutes at room temperature. Then, a kinase detection reagent (45 uL per reaction) was added, and incubated (30°C) for 30 minutes at room temperature. The kinase activity was measured by chemiluminescence according to the instructions of ADP Glo kinase assay kit, and the inhibitory activity of the compounds according to the present disclosure was calculated. For the analysis of the results of each compound, Microsoft Excel was used, and IC50 values were calculated by GraphPad Prism software.

[2] = target: T2, ITK (Homo sapiens, UniProt Q08881); assay: Inhibitory activity against ITK, ADP-Glo Kinase system (Promega); type: biochemical
T2 construct: purchased Signalchem I13-11G-10
T2 sequence (Q08881 1-620): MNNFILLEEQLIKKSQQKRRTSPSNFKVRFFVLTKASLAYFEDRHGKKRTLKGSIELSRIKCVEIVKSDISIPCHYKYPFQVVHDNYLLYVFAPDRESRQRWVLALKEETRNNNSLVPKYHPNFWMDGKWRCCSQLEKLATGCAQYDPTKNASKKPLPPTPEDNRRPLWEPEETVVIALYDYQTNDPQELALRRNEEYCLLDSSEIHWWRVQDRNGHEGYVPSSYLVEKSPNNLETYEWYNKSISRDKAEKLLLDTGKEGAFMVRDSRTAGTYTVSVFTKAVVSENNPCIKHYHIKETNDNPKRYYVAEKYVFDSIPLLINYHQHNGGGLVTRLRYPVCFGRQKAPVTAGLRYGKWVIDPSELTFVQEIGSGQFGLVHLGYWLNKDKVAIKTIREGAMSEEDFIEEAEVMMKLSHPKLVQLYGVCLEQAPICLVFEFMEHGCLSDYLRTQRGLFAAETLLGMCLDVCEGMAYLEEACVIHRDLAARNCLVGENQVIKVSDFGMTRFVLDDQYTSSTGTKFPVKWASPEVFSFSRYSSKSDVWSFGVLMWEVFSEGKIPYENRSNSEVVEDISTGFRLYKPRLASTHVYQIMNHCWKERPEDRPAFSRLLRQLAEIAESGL
Method: as §1, §2, §3

[3] = 1mM ATP, read-out: BTK IC50(nM) 1mM ATP
[4] = 1mM ATP, read-out: ITK IC50(nM) 1mM ATP
[5] = Km ATP (BTK: 10 uM), read-out: BTK IC50(nM) Km ATP
[6] = Km ATP (ITK: 25uM), read-out: ITK IC50(nM) Km ATP

T1 sequence (Q06187 whole entry): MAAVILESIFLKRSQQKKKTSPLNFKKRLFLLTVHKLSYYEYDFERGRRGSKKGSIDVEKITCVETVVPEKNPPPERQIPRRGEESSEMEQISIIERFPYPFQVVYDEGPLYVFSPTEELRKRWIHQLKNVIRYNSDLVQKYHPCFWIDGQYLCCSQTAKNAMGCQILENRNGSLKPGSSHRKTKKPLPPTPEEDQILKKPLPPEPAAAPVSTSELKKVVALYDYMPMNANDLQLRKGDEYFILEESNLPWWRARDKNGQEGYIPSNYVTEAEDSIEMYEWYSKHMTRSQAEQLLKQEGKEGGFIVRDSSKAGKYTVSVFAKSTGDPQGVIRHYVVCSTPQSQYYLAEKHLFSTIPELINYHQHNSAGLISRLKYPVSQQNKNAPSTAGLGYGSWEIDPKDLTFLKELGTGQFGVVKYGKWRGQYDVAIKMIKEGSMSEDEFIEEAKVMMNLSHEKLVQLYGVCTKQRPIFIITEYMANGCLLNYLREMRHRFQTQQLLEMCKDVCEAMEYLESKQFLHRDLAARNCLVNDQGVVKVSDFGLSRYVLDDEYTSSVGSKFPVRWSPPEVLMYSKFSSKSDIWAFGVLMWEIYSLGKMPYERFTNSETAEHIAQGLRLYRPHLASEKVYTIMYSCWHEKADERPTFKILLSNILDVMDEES

Row | IC50 [1, 3] [nM] | IC50 [2, 4] [nM] | IC50 [1, 5] [nM] | IC50 [2, 6] [nM] | Structure (SMILES)
1 | ≤ 20 | 20 to 100 | – | – | C=CC(=O)N1CCC[C@@H]1COc1nc(Nc2ncc(C)s2)cc2c1ccn2C(C)C [Example 89, (R)-1-(2-(((1-isopropyl-6-((5-methylthiazol-2-yl)amino)-1H-pyrrolo[3,2-c]pyridin-4-yl)oxy)methyl)pyrrolidin-1-yl)prop-2-en-1-one]
2 | ≤ 20 | ≤ 20 | – | – | C=CC(=O)N1C[C@H](F)[C@H](Oc2nc(Nc3ncc(C)s3)cc3c2ccn3CC2CCCC2)C1 [Example 132, 1-((3R,4S)-3-((1-(cyclopentylmethyl)-6-((5-methylthiazol-2-yl)amino)-1H-pyrrolo[3,2-c]pyridin-4-yl)oxy)-4-fluoropyrrolidin-1-yl)prop-2-en-1-one]
3 | 20 to 100 | 100 to 500 | – | – | C=CC(=O)N1CC[C@H](COc2nc(Nc3ncc(C)s3)cc3c2ccn3CC(C)C)C1 [Example 216, (S)-1-(3-(((1-isobutyl-6-((5-methylthiazol-2-yl)amino)-1H-pyrrolo[3,2-c]pyridin-4-yl)oxy)methyl)pyrrolidin-1-yl)prop-2-en-1-one]
4 | 100 to 500 | 100 to 500 | 20 to 100 | 20 to 100 | C=CC(=O)N1CC=C(c2nc(Nc3cc(C)ccn3)cc3c2ccn3C(C)C)CC1 [Example 49, 1-(4-(1-isopropyl-6-((4-methylpyridin-2-yl)amino)-1H-pyrrolo[3,2-c]pyridin-4-yl)-3,6-dihydropyridin-1(2H)-yl)prop-2-en-1-one]
5 | – | – | ≤ 20 | ≤ 20 | C=CC(=O)N1CC=C(c2nc(Nc3ncc(C)s3)cc3c2ccn3CC2CCC2)CC1 [Example 7, 1-(4-(1-(cyclobutylmethyl)-6-((5-methylthiazol-2-yl)amino)-1H-pyrrolo[3,2-c]pyridin-4-yl)-3,6-dihydropyridin-1(2H)-yl)prop-2-en-1-one]
6 | ≤ 20 | ≤ 20 | ≤ 20 | ≤ 20 | C=CC(=O)N1CC(Oc2nc(Nc3ncc(C)s3)cc3c2ccn3C(C)C)C1 [Example 80, 1-(3-((1-isopropyl-6-((5-methylthiazol-2-yl)amino)-1H-pyrrolo[3,2-c]pyridin-4-yl)oxy)azetidin-1-yl)prop-2-en-1-one]
7 | ≤ 20 | ≤ 20 | – | – | C=CC(=O)N1CC[C@@H]1COc1nc(Nc2ncc(C)s2)cc2c1ccn2CC(F)F [Example 209, (R)-1-(2-(((1-(2,2-difluoroethyl)-6-((5-methylthiazol-2-yl)amino)-1H-pyrrolo[3,2-c]pyridin-4-yl)oxy)methyl)azetidin-1-yl)prop-2-en-1-one]
8 | ≤ 20 | ≤ 20 | – | – | C=CC(=O)N1C[C@H](F)[C@H](Oc2nc(Nc3ncc(C)s3)cc3c2ccn3C2CCCC2)C1 [Example 109, 1-((3R,4S)-3-((1-cyclopentyl-6-((5-methylthiazol-2-yl)amino)-1H-pyrrolo[3,2-c]pyridin-4-yl)oxy)-4-fluoropyrrolidin-1-yl)prop-2-en-1-one]
9 | – | – | ≤ 20 | ≤ 20 | C=CC(=O)N1CC(C)C(Oc2nc(Nc3ncc(C)s3)cc3c2ccn3CC(C)C)C1 (stereo not drawn) [Example 116, 1-(3-((1-isobutyl-6-((5-methylthiazol-2-yl)amino)-1H-pyrrolo[3,2-c]pyridin-4-yl)oxy)-4-methylpyrrolidin-1-yl)prop-2-en-1-one]
10 | – | – | ≤ 20 | ≤ 20 | C=CC(=O)Nc1cc(-c2nc(Nc3ncc(C)s3)cc3c2ccn3CC(F)F)ccc1C [Example 74, N-(5-(1-(2,2-difluoroethyl)-6-((5-methylthiazol-2-yl)amino)-1H-pyrrolo[3,2-c]pyridin-4-yl)-2-methylphenyl)acrylamide]

Second part, the compound before the results:

Row | Structure (SMILES) | IC50 [1, 3] [nM] | IC50 [2, 4] [nM] | IC50 [1, 5] [nM] | IC50 [2, 6] [nM]
11 | C=CC(=O)N1CC=C(c2nc(Nc3cc(OC)ncn3)cc3c2ccn3C(C)C)CC1 [Example 46, 1-(4-(1-isopropyl-6-((6-methoxypyrimidin-4-yl)amino)-1H-pyrrolo[3,2-c]pyridin-4-yl)-3,6-dihydropyridin-1(2H)-yl)prop-2-en-1-one] | ≤ 20 | 100 to 500 | – | –
12 | C=CC(=O)N1CC=C(c2nc(Nc3ncc(C)s3)cc3c2ccn3CC2CCC(F)(F)CC2)CC1 [Example 11, 1-(4-(1-((4,4-difluorocyclohexyl)methyl)-6-((5-methylthiazol-2-yl)amino)-1H-pyrrolo[3,2-c]pyridin-4-yl)-3,6-dihydropyridin-1(2H)-yl)prop-2-en-1-one] | – | – | ≤ 20 | ≤ 20
13 | C=CC(=O)N1CC[C@H](Oc2nc(Nc3ncc(C)s3)cc3c2ccn3CC2CC2)C1 [Example 97, (S)-1-(3-((1-(cyclopropylmethyl)-6-((5-methylthiazol-2-yl)amino)-1H-pyrrolo[3,2-c]pyridin-4-yl)oxy)pyrrolidin-1-yl)prop-2-en-1-one] | ≤ 20 | ≤ 20 | – | –
14 | C=CC(=O)N1CC=C(c2nc(Nc3ncc(C)s3)cc3c2ccn3CCC(C)(C)C)CC1 [Example 18, 1-(4-(1-(3,3-dimethylbutyl)-6-((5-methylthiazol-2-yl)amino)-1H-pyrrolo[3,2-c]pyridin-4-yl)-3,6-dihydropyridin-1(2H)-yl)prop-2-en-1-one] | – | – | 20 to 100 | ≤ 20
15 | C=CC(=O)N1C[C@@H](OC)C[C@@H]1COc1nc(Nc2ncc(C)s2)cc2c1ccn2C(C)C [Example 94, 1-((2R,4S)-2-(((1-isopropyl-6-((5-methylthiazol-2-yl)amino)-1H-pyrrolo[3,2-c]pyridin-4-yl)oxy)methyl)-4-methoxypyrrolidin-1-yl)prop-2-en-1-one] | ≤ 20 | ≤ 20 | – | –
16 | C=CC(=O)N1CC(C)(Oc2nc(Nc3ncc(C)s3)cc3c2ccn3C)C1 [Example 166, 1-(3-methyl-3-((1-methyl-6-((5-methylthiazol-2-yl)amino)-1H-pyrrolo[3,2-c]pyridin-4-yl)oxy)azetidin-1-yl)prop-2-en-1-one] | ≤ 20 | ≤ 20 | – | –
17 | C=CC(=O)N1CC=C(c2nc(Nc3ncc(C)s3)cc3c2ccn3CC(C)C)CC1 [Example 6, 1-(4-(1-isobutyl-6-((5-methylthiazol-2-yl)amino)-1H-pyrrolo[3,2-c]pyridin-4-yl)-3,6-dihydropyridin-1(2H)-yl)prop-2-en-1-one] | 20 to 100 | 100 to 500 | ≤ 20 | ≤ 20
18 | C=CC(=O)N1CC[C@H](Oc2nc(Nc3ncc(C)s3)cc3c2ccn3CCOC)C1 [Example 127, (S)-1-(3-((1-(2-methoxyethyl)-6-((5-methylthiazol-2-yl)amino)-1H-pyrrolo[3,2-c]pyridin-4-yl)oxy)pyrrolidin-1-yl)prop-2-en-1-one] | ≤ 20 | ≤ 20 | – | –
19 | C=CC(=O)N1CC[C@H](Oc2nc(Nc3ncc(C)s3)cc3c2ccn3[C@H](C)C(F)(F)F)C1 [Example 213, 1-((S)-3-((6-((5-methylthiazol-2-yl)amino)-1-((R)-1,1,1-trifluoropropan-2-yl)-1H-pyrrolo[3,2-c]pyridin-4-yl)oxy)pyrrolidin-1-yl)prop-2-en-1-one] | ≤ 20 | ≤ 20 | – | –
20 | C=CC(=O)N1CC[C@H](Oc2nc(Nc3ncc(C)s3)cc3c2ccn3CCC(C)C)C1 [Example 114, (S)-1-(3-((1-isopentyl-6-((5-methylthiazol-2-yl)amino)-1H-pyrrolo[3,2-c]pyridin-4-yl)oxy)pyrrolidin-1-yl)prop-2-en-1-one] | ≤ 20 | ≤ 20 | – | –
21 | C=CC(=O)N1CCC[C@H]1COc1nc(Nc2ncc(C)s2)cc2c1ccn2CC(C)CC (stereo partly drawn) [Example 221, 1-((2S)-2-(((1-(2-methylbutyl)-6-((5-methylthiazol-2-yl)amino)-1H-pyrrolo[3,2-c]pyridin-4-yl)oxy)methyl)pyrrolidin-1-yl)prop-2-en-1-one] | ≤ 20 | 20 to 100 | – | –
